# Source: US11964943B2, “3,5-diarylidenyl-n-substituted-piperid-4-one-derived inhibitors of Stat3 pathway activity and uses thereof” (priority 2017, dated 2024)
# Where “and” joins values, the source holds several entries; their conditions need not be identical. Identical values can stand only once.
# Key:
# Assay type in all cases: cell-based
# [1] = system: A2780-cisplatin resistant spheroids; experiment: Spheroid diameter measurement; conditions: for Diameter (μm): 96 h
# Experimental: For cell spheroid formation, HCT116-oxaliplatin resistant cells, A2780-cisplatin resistant cells, and HT1080 cells were seeded in Corning® Spheroid opaque-walled 96 well Microplates (ultra-low attachment; Nuclon™ Sphera™, Thermofisher) at densities of 2000 cells/well in 100 μl of cell solution and allowed to grow for 4 days, before any manipulation.
# The diameters of spheroid cells were determined using Cell^F Imaging Software. A diameter corresponds to the mean value of one horizontal and one vertical measurement.
# [2] = system: HT1080 fibrosarcoma spheroids; experiment: Spheroid invasion assay; conditions: 3 μM, 90 h observation
# Experimental: Multicellular spheroids from HT-1080 cells were grown for 4 days in RPMI 1640 medium in 96-well plates (Nunclon Sphera, Thermo Fisher) and their size was measured with an inverted microscope (Olympus CKX41, 4× objective) and Cell^F software. […] Growth factor reduced Matrigel (Becton Dickinson) was thawed on ice and diluted in 4° C. cold medium to a final concentration of 300 μg/mL with or without IE-8. One hundred fifty microliter of these solutions were added to the wells containing spheroids in 50 μL medium. The plate was incubated in a humidified atmosphere with 5% CO2 in air at 37° C. Both untreated and treated spheroids were monitored simultaneously with a JuliBr live cell analyzer (NanoEntek) for 90 h to visualize spheroid invasion, and every hour the relative cross-sectional area of the spheroids was measured.
# [3] = system: DU145 cells; experiment: Colony formation assay with paclitaxel; conditions: 0.4 μM IE-8 + 0.003 μM paclitaxel, 10 days
# Experimental: DU145 cells were seeded at 1000 cells/well in 6-well plates and allowed to adhere overnight. Cells were treated after seeding with IE-8, paclitaxel, and a combination thereof, and incubated without any further manipulation for 10 days until the control (untreated) wells had <200 colonies formed. Colonies were fixed with ice-cold 100% Methanol, washed with PBS, stained with crystal violet (0.5% w/v) for 5 minutes and counted using a colony-counting function of the Fusion 15.12 software.
# [4] = system: HCT116-oxaliplatin resistant cells; experiment: Colony formation assay with oxaliplatin; conditions: 10 days
# Experimental: HCT116-oxaliplatin res cells were seeded at 2000 cells/well in 6-well plates and allowed to adhere overnight. The next day, oxaliplatin and IE-8 were added simultaneously. First, the specific amount of cells solution was removed from each well and afterwards the same volume of the appropriate drug dilution was added to achieve the right concentration. IE-8 was diluted in DMA. Cells were also treated with Oxaliplatin and IE-8 alone. The plates were left the incubator and the cells were allowed to grow colonies for 10 days. After 10 days the entire cell solution was removed from each well, which was subsequently washed with 500 μl of PBS. 1 ml of cold 100% methanol was added and the plates were incubated for 30 minutes at 4 C. After a second wash, the cells were stained with 1 ml of […] staining dye for 2-3 minutes, rinsed with water, allowed to dry overnight and the colonies were quantified using a gel imaging system (Fusion Fx7) and its in-built colony counter software.
# [5] = system: BRCA1, FANCD2, EME1 and MUS81; experiment: RT-PCR and immunoblotting of DNA ICL repair factors; conditions: DU145 cells, 18 h
# Experimental: Whole cell lysates were prepared by incubation of harvested, trypsinised cells with CelLytic™ lysis buffer (Sigma-Aldrich) supplemented with 1× protease and 1× phosphatase inhibitors (Roche). Protein quantification was carried out using a protein assay kit (Bio-Rad). 40 μg of the lysates were denatured by heating for 5 min at 95° C. in sample buffer containing 100 mM Tris-Cl (pH 6.8), 4% SDS, 10% 2-mercaptoethanol, 20% glycerol, and 0.02% bromophenol blue. Precision Plus Protein Dual colour standards (Bio-Rad) were used as a molecular weight reference. For the detection of STAT3, pSTAT3, α/β tubulin, cleaved PARP, Bcl-2, Bcl-xL, FANCD2, BRCA1, EME1 and MUS81, proteins were separated on a NuPAGE 7% Tris-acetate gel (Life Technologies) and subsequently transferred to polyvinylidene difluoride membranes (Immobilon®-P transfer membrane; Millipore). […]
# After drug-treatment cells were harvested by trypsinisation followed by centrifugation. […] TaqMan Gene Expression Assays (Life Technologies) for FANCD2, BRCA1, EME1 and MUS81 were used to quantify changes in gene expression. […] Fold change was calculated using the comparative CT method normalizing to GAPDH expression.
# RT-PCR. […] TaqMan Gene Expression Assays (Life Technologies) for FANCD2, BRCA1, EME1 and MUS81 were used to quantify changes in gene expression. […] Fold change was calculated using the comparative CT method normalizing to GAPDH expression.
compound,measurement,setting,value
"COc1cc(/C=C2\CN(c3ccccc3)C/C(=C\c3cc(OC)c(OC)c(OC)c3)C2=O)cc(OC)c1OC [IE-8, 3,5-Di(3,4,5-trimethoxybenzylidene)-1-phenylpiperidin-4-one]",spheroid size,"[1]; 10 μM IE-8, 96 hours",markedly decreases the size of the spheroid
same,Diameter (μm),[1]; IE-8 1.0 μM,1176.0 μm
same,Diameter (μm),[1]; IE-8 2.0 μM,1037.0 μm
same,Diameter (μm),[1]; IE-8 3.0 μM,990.9 μm
same,Diameter (μm),[1]; IE-8 4.0 μM,820 μm and 819.7 μm
same,Diameter (μm),[1]; IE-8 5.0 μM,619.8 μm
same,rate of confluence (invasion) of spheroids in matrigel,[2],markedly reduced and also delayed
same,colony formation,[3],no colonies were formed
same,number of colonies,[4]; 0.1 μM IE-8 + 1 μM oxaliplatin,about 60
same,number of colonies,[4]; 0.1 μM IE-8 + 2 μM oxaliplatin,Less than 25
same,"expression of BRCA1, FANCD2, EME1 and MUS81 (mRNA and protein)",[5],markedly downregulated
